Test results from patent publication US4565811A, “Sodium salt of ursodeoxycholic sulphate” (Istituto Biologico Chemioterapico "ABC" S.p.A., priority 1983, dated 1986).
Where a name gives a salt, the structure may show the parent alone.

How the values were obtained:
[1] = test system: hyperdislipidemia caused by Triton WR-1339 in the rat; experiment: Action on the hyperdislipidemia caused by Triton WR-1339 in the rat; format: in vivo, Albinus rats (Witar); conditions: for Alfa-Lipoproteins: Increase towards Group 2 / Beta-Lipoproteins: Inhibition towards Group 2 / Beta/alfa ratio: Inhibition towards Group 2 / Total cholesterol: Inhibition in comparison with Group 2 / Total lipids: Inhibition in comparison with Group 2 / Triglycerids: Inhibition in comparison with Group 2: vs Group 2 (Triton control); for Activity compared with UA: oral
Procedure: Action on the hyperdislipidemia caused by Triton WR-1339 in the rat
Albinus rats (Witar) of 300-320 g each, having been fed only with water "ad libitum" for 12 hours, were treated with US and UA, by oral route, 4 hours before and 15 hours after the administration intraperitenously of Triton WR-1339 at the dosage of 300 mg/kg in 10 ml/kg of physiologic solution at 0.9%.
US and UA dosages were 25, 50 and 100 mg/kg respectively and the rats were divided in the following groups of 10 animals each.
Group 1: Controls treated with 10 ml/kg of physiological solution at 0.9% orally.
Group 2: Controls treated with 300 mg/kg of Triton WR-1339 i.p. and 10 ml/kg of carboxy methyl cellulose (CMC) at 0.5%.
Group 3, 4 and 5: UA at 25, 50 and 100 mg/kg respectively suspended in 10 ml/kg of CMC at 0.5%.
Groups 6, 7 and 8: US at 25, 50 and 100 mg/kg respectively dissolved in 10 ml/kg of physiologic solution.
The following Tables 1 and 2 list the results of blood-tests from addominal aorta of rats sacrificed 5 hours after the last treatment: […]

[2] = Acute toxicity of US in the rat by oral administration; format: in vivo; parameters: key to Symptomatology: N: none; D: depression; conditions: rat, in vivo
Procedure: (§1) Acute toxicity of sodium ursosulphate was tested in rats by administering the different doses of the compound directly in a physiologic solution at 0.9% in a volume either of 10 ml/kg by oral route through a probe directly to the stomach or of 5 ml/kg intraperitoneously or intravenously.
(§2) The dosages administered to groups of 10 animals each are reported in the following Tables 3 to 5 together with the symptomatology observed for a period of 8 days.

[3] = test system: rat; experiment: as above; format: in vivo; parameters: key to Symptomatology: N: none; D: depression; conditions: for Symptomatology: 8 days; for Died animals: groups of 10, 8 days
Procedure: as §1, §2

[4] = Acute toxicity of US in the rat by intraperitoneal administration; format: in vivo; parameters: key to Symptomatology: N: none; D: depression; conditions: rat, in vivo, ip
Procedure: as §1, §2

[5] = test system: rat; experiment: as above; format: in vivo; parameters: key to Symptomatology: N: none; D: depression; conditions: for Symptomatology: 8 days; for Died animals: groups of 10, 8 days
Procedure: as §1, §2

[6] = Acute toxicity of US in the rat by intravenous route; format: in vivo; parameters: key to Symptomatology: N: none; D: depression; conditions: rat, in vivo
Procedure: as §1, §2

[7] = test system: rat; experiment: as above; format: in vivo; parameters: key to Symptomatology: N: none; D: depression; conditions: for Symptomatology: 8 days; for Died animals: groups of 10, 8 days
Procedure: as §1, §2

[8] = Solubility in water / acidity; format: physicochemical; conditions: water
[9] = Toxicity of sodium ursosulphate compared with ursodeoxycholic acid; conditions: in vivo
[10] = 25 mg/kg os, Triton WR-1339 rat
[11] = 50 mg/kg os, Triton WR-1339 rat
[12] = 100 mg/kg os, Triton WR-1339 rat
[13] = rat, up to the administered doses

In the case of CC(CCC(=O)O)C1CCC2C3C(OS(=O)(=O)O)CC4CC(OS(=O)(=O)O)CCC4(C)C3CCC12C (stereo not drawn) [US, sodium salt of ursodeoxycholic O-sulphate], the “Alfa-Lipoproteins Average ± SD” value [1, 10] is reported as 29,2 ± 6,7 mg/100 ml serum, the “Beta-Lipoproteins Average ± SD” value [1, 10] is reported as 191,5 ± 42,1 mg/100 ml serum and the “Beta/alfa ratio Average ± SD” value [1, 10] is reported as 7,23 ± 3,6 mg/100 ml serum. For the same compound, the “Total cholesterol Average ± SD” value [1, 10] was 220,8 ± 36,4 mg/100 ml serum, the “Total lipids Average ± SD” value [1, 10] was 2697,1 ± 706,8 mg/100 ml serum and the “Triglycerids Average ± SD” value [1, 10] was 1040,6 ± 91,08 mg/100 ml serum. For the same compound, the “Alfa-Lipoproteins: Increase towards Group 2” value ([1]; 25 mg/kg os) was “+30,4%”, the “Beta-Lipoproteins: Inhibition towards Group 2” value ([1]; 25 mg/kg os) was -29,9% and the “Beta/alfa ratio: Inhibition towards Group 2” value ([1]; 25 mg/kg os) was -42,0%. For the same compound, the “Total cholesterol: Inhibition in comparison with Group 2” value (shortened to “Total cholesterol: Inhibition”) ([1]; 25 mg/kg os) was -25,4%, the “Total lipids: Inhibition in comparison with Group 2” value (“Total lipids: Inhibition” for short) ([1]; 25 mg/kg os) was -29,4% and the “Triglycerids: Inhibition in comparison with Group 2” value (shortened to “Triglycerids: Inhibition”) ([1]; 25 mg/kg os) was -20,7%. For the same compound, the “Alfa-Lipoproteins Average ± SD” value [1, 11] was 39,32 ± 5,5 mg/100 ml serum, the “Beta-Lipoproteins Average ± SD” value [1, 11] was 123,8 ± 27,7 mg/100 ml serum and the “Beta/alfa ratio Average ± SD” value [1, 11] was 3,15 ± 1,1 mg/100 ml serum. For the same compound, the “Total cholesterol Average ± SD” value [1, 11] was 163,2 ± 25,7 mg/100 ml serum, the “Total lipids Average ± SD” value [1, 11] was 1972,6 ± 550,0 mg/100 ml serum and the “Triglycerids Average ± SD” value [1, 11] was 654,3 ± 206,5 mg/100 ml serum. The “Alfa-Lipoproteins: Increase towards Group 2” value ([1]; 50 mg/kg os) was “+75,4%”, the “Beta-Lipoproteins: Inhibition towards Group 2” value ([1]; 50 mg/kg os) was -54,7% and the “Beta/alfa ratio: Inhibition towards Group 2” value ([1]; 50 mg/kg os) was -74,7%. The “Total cholesterol: Inhibition” value ([1]; 50 mg/kg os) was -44,3%, the “Total lipids: Inhibition” value ([1]; 50 mg/kg os) was -48,4% and the “Triglycerids: Inhibition” value ([1]; 50 mg/kg os) was -50,1%. For the same compound, the “Alfa-Lipoproteins Average ± SD” value [1, 12] was 44,8 ± 8,5 mg/100 ml serum, the “Beta-Lipoproteins Average ± SD” value [1, 12] was 102,3 ± 36,9 mg/100 ml serum and the “Beta/alfa ratio Average ± SD” value [1, 12] was 2,46 ± 1,2 mg/100 ml serum. The “Total cholesterol Average ± SD” value [1, 12] was 147,2 ± 31,3 mg/100 ml serum, the “Total lipids Average ± SD” value [1, 12] was 1949,7 ± 273,9 mg/100 ml serum and the “Triglycerids Average ± SD” value [1, 12] was 583,4 ± 121,1 mg/100 ml serum. The “Alfa-Lipoproteins: Increase towards Group 2” value ([1]; 100 mg/kg os) was “+100%”, the “Beta-Lipoproteins: Inhibition towards Group 2” value ([1]; 100 mg/kg os) was -72,6% and the “Beta/alfa ratio: Inhibition towards Group 2” value ([1]; 100 mg/kg os) was -80,3%. For the same compound, the “Total cholesterol: Inhibition” value ([1]; 100 mg/kg os) was -50,3%, the “Total lipids: Inhibition” value ([1]; 100 mg/kg os) was -48,9% and the “Triglycerids: Inhibition” value ([1]; 100 mg/kg os) was -55,5%. The “Dose dependence of activity inhibiting the hyperdislipidemia” value ([1]; 25, 50 and 100 mg/kg oral, Triton WR-1339 rat) was “depends on the dosage”, the “Activity compared with UA” value ([1]; Triton WR-1339 rat) was “more active than UA in all the considered tests” and the “Activity compared with UA” value ([1]; Triton WR-1339 rat, listed as sodium ursosulphate (US)) was “an activity in some cases higher than that of ursodeoxycholic acid”. It also gave a mortality at 192 h ([2]; 1000 mg/kg) of 0%, a mortality at 192 h ([2]; 2000 mg/kg) of 0% and a mortality at 192 h ([2]; 3000 mg/kg) of 0%. The mortality at 192 h ([2]; 4000 mg/kg) was 0%, the mortality at 192 h ([2]; 5000 mg/kg) was 20% and the mortality at 192 h ([2]; 6000 mg/kg) was 40%. The Symptomatology ([3]; 1000 mg/kg) was “N”, the Died animals ([3]; 1000 mg/kg) was 0 animals and the Symptomatology ([3]; 2000 mg/kg) was “N”. For the same compound, the Died animals ([3]; 2000 mg/kg) was 0 animals, the Symptomatology ([3]; 3000 mg/kg) was “D” and the Died animals ([3]; 3000 mg/kg) was 0 animals. For the same compound, the Symptomatology ([3]; 4000 mg/kg) was “D”, the Died animals ([3]; 4000 mg/kg) was 0 animals and the Symptomatology ([3]; 5000 mg/kg) was “D”. For the same compound, the Died animals ([3]; 5000 mg/kg) was 2 animals, the Symptomatology ([3]; 6000 mg/kg) was “D” and the Died animals ([3]; 6000 mg/kg) was 4 animals. For the same compound, the LD50 [3, 13] was “the LD50 was not reached up to the administered doses”, the mortality at 192 h ([4]; 500 mg/kg) was 0% and the mortality at 192 h ([4]; 600 mg/kg) was 0%. The mortality at 192 h ([4]; 700 mg/kg) was 0%, the mortality at 192 h ([4]; 800 mg/kg) was 0% and the mortality at 192 h ([4]; 900 mg/kg) was 10%. For the same compound, the Symptomatology ([5]; 500 mg/kg) was “N”, the Died animals ([5]; 500 mg/kg) was 0 animals and the Symptomatology ([5]; 600 mg/kg) was “N”. For the same compound, the Died animals ([5]; 600 mg/kg) was 0 animals, the Symptomatology ([5]; 700 mg/kg) was “D” and the Died animals ([5]; 700 mg/kg) was 0 animals. The Symptomatology ([5]; 800 mg/kg) was “D”, the Died animals ([5]; 800 mg/kg) was 0 animals and the Symptomatology ([5]; 900 mg/kg) was “D”. The Died animals ([5]; 900 mg/kg) was 2 animals, the LD50 [5, 13] was “the LD50 was not reached up to the administered doses” and the mortality at 192 h ([6]; 400 mg/kg) was 0%. For the same compound, the mortality at 192 h ([6]; 500 mg/kg) was 0%, the mortality at 192 h ([6]; 600 mg/kg) was 0% and the mortality at 192 h ([6]; 650 mg/kg) was 10%. For the same compound, the mortality at 192 h ([6]; 700 mg/kg) was 10%, the mortality at 192 h ([6]; 750 mg/kg) was 20% and the Symptomatology ([7]; 400 mg/kg) was “N”. For the same compound, the Died animals ([7]; 400 mg/kg) was 0 animals, the Symptomatology ([7]; 500 mg/kg) was “N” and the Died animals ([7]; 500 mg/kg) was 0 animals. For the same compound, the Symptomatology ([7]; 600 mg/kg) was “D”, the Died animals ([7]; 600 mg/kg) was 0 animals and the Symptomatology ([7]; 650 mg/kg) was “D + C”. For the same compound, the Died animals ([7]; 650 mg/kg) was 1 animals, the Symptomatology ([7]; 700 mg/kg) was “D + C” and the Died animals ([7]; 700 mg/kg) was 1 animals. For the same compound, the Symptomatology ([7]; 750 mg/kg) was “D + C”, the Died animals ([7]; 750 mg/kg) was 2 animals and the LD50 [7, 13] was “the LD50 was not reached up to the administered doses”. The Solubility in water ([8]; listed as Sodium ursosulphate) was “very soluble in water”, the Solubility in water ([8]; listed as sodium ursosulphate) was “very soluble in water” and the “Toxicity compared with ursodeoxycholic acid” value [9] was “does not show any significative differences and maintains the values already known for ursodeoxycholic acid”.
